In patent US7129250B2, “Neuroprotective and anti-proliferative compounds” (Aegera Therapeutics Inc., priority 2000, dated 2006):
Where “and” joins values, the source holds several entries; their conditions need not be identical. Equal entries are not always repeated. One block for each compound: values may come before it.

Experiments:
CGNs [1] = test: Cisplatin Killing of CGNs; type: cell-based, CD1 mice
Experimental: Cisplatin has been used extensively in the treatment of various cancers. One dosblimiting side effect of this chemotherapeutic agent is related to hearing loss as a result of its toxicity to auditory neurons and loss of feeling in the extremities. Cisplatin induces apoptosis to both cultured CGN and cortical neurons.
CGNs were harvested from day 8/9 post-natal CD1 mice, plated on Poly-D-Lycine coated plates and incubated for 6 days at 37° C. under 5% CO2. The cells were treated with media containing drug and cisplatin […].

SCG neurons = test: NGF Withdrawal Killing of SCG Neurons; type: cell-based, Sprague-Dawley rats; conditions: Rattus norvegicus, Neuron, assayed 48 hours after drug
Excerpt: Cultured Superiour Cervical Ganglion (SCG) neurons of the PNS which have been sustained in media containing Neuron Growth Factor (NGF) undergo apoptotic cell death upon removal of the NGF from the cellular medium. Loss of neuronal trofin support has been implicated in various neurodegenerative disease states in the PNS, such as diabetic neuropathy and neuropahies related to chemotherapeutic and anti-HIV drug treatment.
SCG neurons were harvested from day 1 post natal Sprague-Dawley rats, plated on collagen coated plates and incubated for 5 days in the presence of 50 ng/mL NGF at 37° C. under 5% CO2. The cells were washed with NGF free media, 4 times at 1 hour intervals, at which time drug was added.

CGNs [2] = test: High/Low Potassium (HK/LK) assay in CGNs; type: cell-based; conditions: for IC50: Mus musculus, HK/LK switch, drug 24 h pre-treatment, assayed 16 h after media change, concentration at which cell death was inhibited by 50%
Experimental: Cultured CGNs which are maintained in a medium containing 26 mM potassium (high K^+ or HK) undergo cell death when the medium is changed to one containing 5 mM potassium (low K^+ or LK). HK maintains the cells in a highly polarized state, duplicating that of fully innervated neurons. The switch to LK (5 mM is more representative of physiological conditions) results in depolarization of the cells, mimicking the loss of neuronal conductivity. […] As these killer genes are turned on by various types of neuronal insult as observed in AD, PD, and stroke, HK/LK is a general in vitro model for neuronal degradation, blanketing a wide range of neurodegenerative diseases. Compounds that protect against HK/LK in CGNs would therefore be efficacious in treatment and/or prevention of various neurodegenerative disease states.
CGNs were harvested from day 8/9 post-natal CD1 mice, plated on Poly-D-Lycine coated plates and incubated for 6 days at 37° C., with […] potassium, under 5% CO2. Pretreated cells were treated with drug 24 hours prior to changing the media to one containing […] potassium and drug. Cells were assayed 16 hours after the final media change using cell TITER96 (Promega).

CGNs [3] = test: β-Amyloid Aggregation Assay in CGNs; type: cell-based; conditions: Mus musculus, 120 h; Aβ 25 μM; assayed 5 days after Aβ addition
Excerpt: Various mechanisms have been put forward in order to account for the neurotoxicity related to extracellular Aβ fibril formation. […] Regardless of the mode of action, extracellular Aβ fibril formation acts as an effective apoptotic trigger for neuronal cells and serves as an in vitro model for various neurodegenerative diseases characterized by extracellular protein fibril formation, typified by diseases such as AD and PD.
CGNs were harvested from day 8/9 post-natal CD1 mice, plated on Poly-D-Lycine coated plates and incubated for 6 days at 37° C. under 5% CO2. Pretreated cells were treated with drug 24 hours prior to A-β (25 μM) and drug addition.

CGNs [4] = test: Ceramide Killing of CGNs; type: cell-based, CD1 mice; conditions: ceramide 100 uM
Excerpt: Ceramide is a native […] found in most mammalian and human cells. The upregulation of endogenous ceramide has been linked to caspase 1 (ICE) induced apoptosis (Suzuki, A. et al. Exp. Cel. Res., 1997, 233, 41). In a similar fashion, the addition of ceramide to cultured CGNs results in caspase induced apoptosis, and is therefore considered an effective in vitro model for the various neurodegenerative diseases described above, which are characterized by caspase induced apoptosis, as observed in stroke models. Addition of selected compounds of the formula I through III, 24 hours prior to the addition of ceramide, to cultured CGNs provided protection against apoptosis, with 10 to 20% of the cells being saved at 1–10 μM drug concentrations (see Example 114).
CGNs were harvested from day 8/9 post-natal CD1 mice, plated on Poly-D-Lycine coated plates and incubated for 6 days at 37° C. under 5% CO2. Cells were pretreated with drug 24 hours prior to ceramide (100 uM) and drug addition.

CGNs [5] = test: Glutamate Killing of CGNs; type: cell-based, CD1 mice; conditions: glutamate 100 uM
Excerpt: Glutaminergic neurons secrete the neurotransmitter glutamate as a part of normal cell signaling processes. Intracellular glutamate levels are regulated by glial cell uptake and conversion to glutamine. Under conditions of oxidative stress, as observed in various neurodegenerative diseases such as stroke, ALS, PD, and HD, glutaminergic neurons release massive amounts of glutamate into the […] fluid, overwhelming the surrounding cells. Stimulation of both NMDA and non NMDA-type glutamate excitory receptors leads to sustained depolarization of postsynaptic dendrosomal membranes, increased membrane permeability, and impaired ion homeostasis, all leading to either apoptotic or necrotic cell death.
CGNs were harvested from day 8/9 post-natal CD1 mice, plated on Poly-D-Lycine coated plates and incubated for 6 days at 37° C. under 5% CO2. Cells were pretreated with drug 24 hours prior to glutamate (100 uM) and drug addition.

[6] = system: DU145 prostate cancer cells; test: Anticancer Effectiveness on Prostate Tumor Cells (Alamar Blue); type: cell-based, Human; conditions: for % Survival: 7 days
Experimental: Prostate cancer is often resistant to traditional chemotherapies. DU145 is representative prostated cancer cell line. DU145cells were cultured in the presence of various concentrations of compound 136.
Human prostate DUI45 cells were cultured in 96 well dishes. Cells were treated with various concentrations of test compounds for 7 days. Media was then removed and replaced with fresh media containing Alamar Blue. The cells were incubated for a further 4 hours and Alamar blue and conversion was assessed by fluorescence. Compound effectiveness was determined by assessing the reduction in Alamar blue bioconversion following 7 day treatment.

HIAP1 mRNA in LAN5 cells = test: LAN5 HAIP1 Down Regulators (RNA levels); type: cell-based; conditions: HIAP1 RNA level vs control = 1.0; 24 hours drug
Experimental: LAN5 cells were grown in growth media. Cells were plated at cells 50,000 per well in 96 cells per 96 wells. Five days latter drug was added and the cells were liced 24 hours latter using RLT buffer.

Cortical neurons = test: Cisplatin Killing of Cortical Neurons; type: cell-based, Sprague-Dawley rats; conditions: drug 10 μM 24 h pre-treatment
Experimental: Cortical neurons were harvested from day E18 female Sprague-Dawley rats, plated on Poly-L-Lycine coated plates and incubated for 14 days at 37° C. under 5% CO2. […]

SHSY-5Y cells = test: Etoposide Killing of SHSY-5Y; type: cell-based; conditions: etoposide 32 uM
Experimental: SHSY-5Y cells were grown in growth media. Cells are placed at 50,000 cells per 96 well. Four days latter the cells were treated with drug for 48 hours prior to etoposide (32 uM) treatment. On day 6 media was changed to that containing etoposide and drug for 4 hours, at which point the media was changed to media containing drug only. Cells are allowed to survive overnight and then assessed for viability with metabolic activity measured (WST-1-Beohringer Mannheime), as shown in TABLE 13.

[7] = Mus musculus, assayed 48 hours after final drug treatment

Structure (SMILES): COc1ccc2[nH]c3c(c4c(n5c6ccccc6cc35)C(=O)NC4=O)c2c1 [Compound 47]
IC50 (CGNs [1]; [7]): 10 µM
IC50 (SCG neurons): 10 µM
inhibition of HK/LK cell death / protection of CGN neurons (CGNs [2]; 10 μM drug): (100% inhibition at 10 (μM)
IC50 (CGNs [2]): 3 µM

Structure (SMILES): O=C1NC(=O)C2=C1c1c([nH]c3ccccc13)C1Cc3ccccc3N21 (centres unmarked) [Compound 24]
IC50 (CGNs [1]; [7]): 3 µM
IC50 (CGNs [3]): 10 µM
IC50 (CGNs [2]): 10 µM
% CGN Survival (CGNs [4]; drug 1 μM): 11.4%
% CGN Survival (CGNs [4]; drug 10 μM): 10.7%
% CGN Survival (CGNs [5]; drug 100 nM): 0%
% CGN Survival (CGNs [5]; drug 1 μM): 17.0%
% CGN Survival (CGNs [5]; drug 10 μM): 22.3%

Structure (SMILES): CN(C)CCCn1cc(C2=C(n3ccc4ccccc43)C(=O)NC2=O)c2cc(OCc3ccccc3)ccc21 [Compound 136]
cells killed ([6]; 10 μM, after 7 days): 100%
% Survival ([6]; 0.312 um): 102.71%
% Survival ([6]; 0.625 um): 97.00%
% Survival ([6]; 1.25 um): 99.61%
% Survival ([6]; 2.5 um): 81.81%
% Survival ([6]; 5 um): 66.75%
% Survival ([6]; 10 um): −1.64%
% Survival ([6]; 20 um): −1.00%
% Survival ([6]; 40 um): 1.17%

melting point: 287 to 288 °C
Fold Induction (HIAP1 mRNA in LAN5 cells): 0.55
Structure (SMILES): CN(C)C(=O)n1cc(C2=CC(=O)NC2=O)c2cc(Br)ccc21 [Compound 58, 3-(N-(N,N-dimethylcarbamoyl)-5-bromoindol-3-yl)-1H-pyrrole-2,5-dione]

Structure (SMILES): O=C1NC(=O)c2c1c1c3cc(OCc4ccccc4)ccc3[nH]c1c1cc3ccccc3n21 [Compound 52]
IC50 (CGNs [1]; assayed 48 hours after final drug treatment): 3 µM
% Protection at 10 μM (Cortical neurons): 50% and 40%

Structure (SMILES): O=C1NC(=O)C2=C1c1c([nH]c3ccc(OCc4ccccc4)cc13)C1Cc3ccccc3N21 (centres unmarked) [Compound 35]
survival (CGNs [1]; 300 nM drug, cisplatin): 80%
IC50 (CGNs [1]; cisplatin induced apoptosis in CGNs): 0.1 µM
% Protection at 10 μM (Cortical neurons): 10% and 11%

Structure (SMILES): COc1ccc2[nH]cc(C3=C(n4ccc5ccccc54)C(=O)NC3=O)c2c1 [Compound 2, 3-(5-Methoxyindol-3-yl)-4-(indol-1-yl)-1H-pyrrole-2,5-dione]
IC50 (CGNs [1]; [7]): 10 µM
IC50 (CGNs [3]): 10 µM

melting point: 114 to 116 °C
Structure (SMILES): O=C1NC(=O)C(n2ccc3cc(OCc4ccccc4)ccc32)=C1c1c[nH]c2ccccc12 [Compound 12, 3-(5-benzyloxyindol-1-yl)-4-(1H-indol-3-yl)-1H-pyrrole-2,5-dione]

melting point: 271 to 272.9 °C
Fold Induction (HIAP1 mRNA in LAN5 cells): 0.45
Structure (SMILES): CC(=O)n1cc(C2=CC(=O)NC2=O)c2cc(Br)ccc21 [Compound 57, 3-(N-acetyl-5-bromoindol-3-yl)-1H-pyrrole-2,5-dione]

Structure (SMILES): COC(=O)[C@@]1(O)C[C@H]2O[C@]1(C)n1c3ccccc3c3c4c(c5c6ccccc6n2c5c31)C(=O)NC4 [Compound K252a, K252a, reference compound]
% SHSY-5Y cell survival (SHSY-5Y cells; drug 1 μM): 13.9%
toxicity (CGNs [2]; higher doses): toxic at higher doses
% CGN Survival (CGNs [4]; 300 nM, (250 nM in source)): 0 (250 nM) %
% CGN Survival (CGNs [5]; 300 nM, (250 nM in source)): 4.3 (250 nM) %
Fold Induction (HIAP1 mRNA in LAN5 cells): 0.51

Structure (SMILES): COc1ccc2c(c1)c(C1=CC(=O)NC1=O)cn2S(=O)(=O)c1ccc(C)cc1 [Compound 87, 3-(N-tosyl-5-methoxyindol-3-yl)-1H-pyrrole-2,5-dione]
IC50 (CGNs [3]): 10 µM
% CGN Survival (CGNs [4]; drug 1 μM): 0%
% CGN Survival (CGNs [4]; drug 10 μM): 9.1%
% CGN Survival (CGNs [5]; drug 100 nM): 0%
% CGN Survival (CGNs [5]; drug 1 μM): 11.5%
Fold Induction (HIAP1 mRNA in LAN5 cells): 0.37

Structure (SMILES): COc1ccc2c(c1)c1c3c(n4c5ccccc5cc4c1n2C(=O)COC(C)=O)C(=O)NC3=O [Compound 51]
IC50 (CGNs [1]; [7]): 1 µM
% Protection at 10 μM (Cortical neurons): 20% and 23%

Structure (SMILES): COc1ccc(C(=O)n2cc(C3=CC(=O)NC3=O)c3cc(OCc4ccccc4)ccc32)c(OC)c1 [Compound 67, 3-(N-(2,4-dimethoxybenzoyl)-5-benzyloxyindol-3-yl)-1H-pyrrole-2,5-dione]
IC50 (SCG neurons): 10 µM

Structure (SMILES): COC(=O)C(C)(C)Cc1c(C2=CC(=O)NC2=O)c2cc(OCc3ccc4ccccc4n3)ccc2n1Cc1ccc(Cl)cc1 [Compound 109]
IC50 (SCG neurons): 10 µM

Structure (SMILES): O=C1NC(=O)c2c1c1c3ccccc3[nH]c1c1nc3ccccc3n21 [Compound 53]
% Protection at 10 μM (Cortical neurons): 41%

melting point: 141 to 144 °C
Structure (SMILES): O=C1NC(=O)C(n2ccc3ccccc32)=C1c1c[nH]c2ccc(C#Cc3ccccc3)cc12 [Compound 15, 3-(Indol-1-yl)-4-(5-(β-phenylethynyl)-indol-3-yl)-pyrrole-2,5dione]

melting point: 212 to 213 °C
Structure (SMILES): O=C1NC(=O)C(n2ccc3ccccc32)=C1c1c[nH]c2ccccc12 [Compound 1, 3-(indol-1-yl)-4-(1H-indol-3-yl)-1H-pyrrole-2,5-dione]
IC50 (CGNs [1]; [7]): 10 µM
% SHSY-5Y cell survival (SHSY-5Y cells; drug 1 μM): 0%
% SHSY-5Y cell survival (SHSY-5Y cells; drug 10 μM): 12.5%
IC50 (SCG neurons): 20 µM

Structure (SMILES): Cc1ccc(S(=O)(=O)n2cc(C3=CC(=O)NC3=O)c3cc(O)ccc32)cc1 [Compound 91, 3-(N-tosyl-5-hydroxyindol-3-yl)-1H-pyrrole-2,5-dione]
IC50 (SCG neurons): 20 µM

melting point: 217 to 220 °C
Structure (SMILES): O=C1NC(=O)C(n2ccc3ccccc32)=C1c1c[nH]c2ccc(OCc3ccccc3)cc12 [Compound 5, 3-(5-Benzyloxy-1H-indol-3-yl)-4-(indol-1-yl)-pyrrole-2,5-dione]
IC50 (CGNs [1]; [7]): 10 µM

Structure (SMILES): O=C1C=C(c2cn(S(=O)(=O)c3cccs3)c3ccccc23)C(=O)N1 [Compound 97, 3-(N-(2-thiophenesulfonyl)indol-3-yl)-1H-pyrrole-2,5-dione]
IC50 (SCG neurons): 10 µM
